# PubChem BioAssay (NCI)
#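 Dose response: 5 concentrations. Exposure: 48 h. Format: 96-well plates. Endpoint: linear interpolation; highest concentration if not reached. GI50 marks 50% less growth. At the TGI there is no net growth.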
# What was measured:
# Experiment in all cases: NCI anticancer screen, dose series, 48 h
# [1] = system: SF-539 CNS
# [2] = system: PC-3 prostate
# [3] = system: T-47D breast
# [4] = system: HCT-15 colon
# [5] = system: SNB-75 CNS
# [6] = system: IGROV1 ovarian
# [7] = system: OVCAR-4 ovarian
# [8] = system: CAKI-1 renal
# [9] = system: MOLT-4 leukemia
# [10] = system: NCI-H23 lung
# [11] = system: MCF7 breast
# [12] = system: SF-295 CNS
# [13] = system: UACC-62 melanoma
# [14] = system: SNB-19 CNS
# [15] = system: OVCAR-3 ovarian
# [16] = system: MDA-MB-468 breast
# [17] = system: ACHN renal
# [18] = system: LOX IMVI melanoma
# [19] = system: SK-MEL-2 melanoma
# [20] = system: RXF 393 renal
# [21] = system: SK-MEL-28 melanoma
# [22] = system: NCI/ADR-RES ovarian
# [23] = system: TK-10 renal
# [24] = system: 786-0 renal
# [25] = system: HS 578T breast
# [26] = system: BT-549 breast
# [27] = system: A549 NSCLC
# [28] = system: RPMI-8226 leukemia
# [29] = system: HL-60(TB) leukemia
structure (smiles),measurement,setting,value
O=C(NO)c1ccc(-c2nc3ccc4[nH]ncc4c3c3c2CCCC3)cc1,GI50,[1],168 nM
same,TGI,[1],455 nM
same,GI50,[2],424 nM
same,TGI,[2],> 67200 nM
same,GI50,[3],196 nM
same,TGI,[3],1750 nM
same,GI50,[4],250 nM
same,TGI,[4],8570 nM
same,GI50,[5],207 nM
same,TGI,[5],875 nM
same,GI50,[6],318 nM
same,TGI,[6],3110 nM
same,GI50,[7],706 nM
same,TGI,[7],6380 nM
same,GI50,[8],260 nM
same,TGI,[8],6810 nM
same,GI50,[9],244 nM
same,TGI,[9],942 nM
same,GI50,[10],316 nM
same,TGI,[10],1180 nM
same,GI50,[11],344 nM
same,TGI,[11],3570 nM
same,GI50,[12],880 nM
same,TGI,[12],9760 nM
same,GI50,[13],237 nM
same,TGI,[13],1450 nM
same,GI50,[14],288 nM
same,TGI,[14],1740 nM
same,GI50,[15],377 nM
same,TGI,[15],11000 nM
same,GI50,[16],97.9 nM
same,TGI,[16],279 nM
same,GI50,[17],193 nM
same,TGI,[17],5960 nM
same,GI50,[18],306 nM
same,TGI,[18],1320 nM
same,GI50,[19],247 nM
same,TGI,[19],792 nM
same,GI50,[20],103 nM
same,TGI,[20],508 nM
same,GI50,[21],299 nM
same,TGI,[21],1030 nM
same,GI50,[22],1030 nM
same,TGI,[22],21000 nM
same,GI50,[23],261 nM
same,TGI,[23],10400 nM
same,GI50,[24],307 nM
same,TGI,[24],1210 nM
same,GI50,[25],191 nM
same,TGI,[25],1300 nM
same,GI50,[26],187 nM
same,TGI,[26],680 nM
same,GI50,[27],671 nM
same,TGI,[27],> 100000 nM
same,GI50,[28],1650 nM
same,TGI,[28],> 44600 nM
same,GI50,[29],339 nM
